The record followed here is patent US20100022014A1, “Method for Evaluating Obesity Controller” (Kao Corporation, priority 2006, published 2010).

This test concerns insulin secretion. Description: Postprandial insulin secretion after oral glucose + triolein emulsion with added 1-monoolein (Example 5). Conditions: MAG in a one-tenth or one-fifth amount, in words. Format: in vivo, mouse. On the procedure:
Triolein (obtained from Sigma Corp.) was used as triacylglycerol, and 1-monoolein (obtained from Sigma Corp.) was used as monoacylglycerol. Glucose (Kanto Chemical Co., Inc.) was used as the carbohydrate.
Eight fasted mice (C57BL/6J, male, 8 weeks old) were grouped in each group, and the mice were orally administered, using a sonde, with 2 mg/g of body weight of glucose only; with the glucose and also 2 mg/g of body weight of triolein (TAG), in the form of an emulsion obtained by emulsifying 0.02 mg/g of body weight of the lipid with egg yolk lecithin (Glucose and TAG/MAG0, respectively); or with mixtures obtained by respectively adding 0.08, 0.2 and 0.4 mg/g of body weight of 1-monoolein (MAG) to the emulsion (TAG/MAG1, TAG/MAG2, and TAG/MAG3, respectively). The blood was sampled from the orbital vein of each mouse before the administration, and at 10 and 30 minutes after the administration, the blood insulin level was measured, and the area under curve (AUC) of the graph was calculated. The insulin level was measured by the ELISA method (insulin measuring kit, Morinaga Biochemical Lab, Inc.).
Relative values of the amount of secreted insulin (AUC) for 30 minutes after the administration, with respective to the insulin AUC value of the mice which ingested glucose only, taken as 100, are presented in Table 9.

As to `CCCCCCCC/C=C\CCCCCCCC(=O)OCC(O)CO` (stereo not shown) [MAG, 1-monoolein], the “Effect on postprandial insulin secretion relative to TAG/MAG0” value is recorded as “effect of suppressing the postprandial insulin secretion in the blood was recognized”.
